Source: the NIST ThermoML archive (doi:10.1016/j.jct.2013.09.035)

Conditions: Liquid, Vibrating tube method

CCOC(F)(C(F)(F)C(F)(F)C(F)(F)F)C(F)(C(F)(F)F)C(F)(F)F (centres undefined) [2-trifluoromethyl-3-ethoxydodecafluorohexane]
Conditions | mass density [kg/m3]
283.48 K, 60000 kPa | 1751.01
283.49 K, 3000 kPa | 1658.1
283.49 K, 50000 kPa | 1737.96
283.49 K, 70000 kPa | 1762.23
283.5 K, 5000 kPa | 1662.38
283.5 K, 10000 kPa | 1672.98
283.5 K, 30000 kPa | 1709.09
283.5 K, 40000 kPa | 1724.44
283.5 K, 80000 kPa | 1773.1
283.5 K, 90000 kPa | 1783.39
283.51 K, 100 kPa | 1652.11
283.51 K, 1000 kPa | 1653.72
283.51 K, 15000 kPa | 1682.71
283.51 K, 20000 kPa | 1691.9
283.51 K, 25000 kPa | 1701.13
283.52 K, 100000 kPa | 1793.19
293.04 K, 40000 kPa | 1708.75
293.04 K, 50000 kPa | 1723.04
293.04 K, 70000 kPa | 1748.33
293.04 K, 90000 kPa | 1770.03
293.04 K, 100000 kPa | 1780.11
293.05 K, 100 kPa | 1631.62
293.05 K, 1000 kPa | 1633.93
293.05 K, 3000 kPa | 1638.93
293.05 K, 5000 kPa | 1643.69
293.05 K, 10000 kPa | 1654.94
293.05 K, 15000 kPa | 1665.37
293.05 K, 20000 kPa | 1675.05
293.05 K, 25000 kPa | 1684.16
293.05 K, 30000 kPa | 1692.79
293.05 K, 60000 kPa | 1736.39
293.05 K, 80000 kPa | 1759.65
302.88 K, 100 kPa | 1610.41
302.88 K, 1000 kPa | 1612.92
302.88 K, 3000 kPa | 1618.33
302.88 K, 10000 kPa | 1635.7
302.88 K, 60000 kPa | 1721.46
302.89 K, 5000 kPa | 1623.52
302.89 K, 15000 kPa | 1646.85
302.89 K, 20000 kPa | 1657.18
302.89 K, 25000 kPa | 1666.89
302.89 K, 30000 kPa | 1676.01
302.89 K, 40000 kPa | 1692.64
302.89 K, 50000 kPa | 1707.74
302.89 K, 70000 kPa | 1733.98
302.89 K, 80000 kPa | 1745.75
302.89 K, 90000 kPa | 1756.68
302.89 K, 100000 kPa | 1767.03
313.15 K, 90000 kPa | 1744.34
313.16 K, 3000 kPa | 1598.14
313.16 K, 15000 kPa | 1628.94
313.16 K, 20000 kPa | 1639.8
313.16 K, 30000 kPa | 1659.7
313.16 K, 40000 kPa | 1677.38
313.16 K, 60000 kPa | 1707.63
313.17 K, 100 kPa | 1589.56
313.17 K, 1000 kPa | 1592.21
313.17 K, 10000 kPa | 1616.81
313.17 K, 25000 kPa | 1650.1
313.17 K, 50000 kPa | 1693.17
313.17 K, 70010 kPa | 1720.7
313.17 K, 80000 kPa | 1733
313.17 K, 100000 kPa | 1755.06
313.18 K, 5000 kPa | 1603.66
323.04 K, 5000 kPa | 1585.04
323.04 K, 10000 kPa | 1599.21
323.04 K, 15000 kPa | 1612.03
323.04 K, 20000 kPa | 1623.79
323.04 K, 25000 kPa | 1634.67
323.04 K, 30000 kPa | 1644.88
323.04 K, 40000 kPa | 1663.35
323.04 K, 50000 kPa | 1679.91
323.04 K, 60000 kPa | 1694.93
323.04 K, 70000 kPa | 1708.52
323.04 K, 80000 kPa | 1721.13
323.04 K, 90000 kPa | 1732.9
323.04 K, 100000 kPa | 1743.96
323.05 K, 1000 kPa | 1572.54
323.05 K, 3000 kPa | 1578.97
323.06 K, 100 kPa | 1569.59
332.94 K, 15000 kPa | 1591.88
332.94 K, 20000 kPa | 1604.4
332.94 K, 25000 kPa | 1615.92
332.94 K, 30000 kPa | 1626.63
332.94 K, 40000 kPa | 1646.05
332.94 K, 50000 kPa | 1663.31
332.94 K, 60000 kPa | 1678.97
332.94 K, 70000 kPa | 1693.19
332.94 K, 80000 kPa | 1706.27
332.94 K, 90000 kPa | 1718.48
332.94 K, 100000 kPa | 1729.78
332.95 K, 3000 kPa | 1556.26
332.95 K, 5000 kPa | 1562.89
332.95 K, 10000 kPa | 1578.13
332.96 K, 1000 kPa | 1549.29
332.97 K, 100 kPa | 1546.01
342.55 K, 100 kPa | 1525.56
342.56 K, 1000 kPa | 1529.11
342.56 K, 3000 kPa | 1536.69
342.56 K, 5000 kPa | 1543.86
342.56 K, 10000 kPa | 1560.31
342.57 K, 15000 kPa | 1574.95
342.57 K, 20000 kPa | 1588.2
342.57 K, 25000 kPa | 1600.4
342.57 K, 30000 kPa | 1611.69
342.57 K, 40000 kPa | 1632.02
342.57 K, 50000 kPa | 1650.06
342.57 K, 60000 kPa | 1666.29
342.57 K, 70000 kPa | 1680.92
342.57 K, 80000 kPa | 1694.39
342.57 K, 90000 kPa | 1706.96
342.57 K, 100000 kPa | 1718.69
352.56 K, 100 kPa | 1503.72
352.56 K, 1000 kPa | 1507.64
352.57 K, 3000 kPa | 1515.99
352.57 K, 5000 kPa | 1523.8
352.57 K, 10000 kPa | 1541.62
352.57 K, 15000 kPa | 1557.31
352.57 K, 20000 kPa | 1571.45
352.57 K, 25000 kPa | 1584.35
352.57 K, 30000 kPa | 1596.28
352.57 K, 40000 kPa | 1617.61
352.57 K, 50000 kPa | 1636.45
352.57 K, 70000 kPa | 1668.54
352.58 K, 60000 kPa | 1653.3
352.58 K, 80000 kPa | 1682.53
352.58 K, 90000 kPa | 1695.44
352.58 K, 100000 kPa | 1707.52
362.59 K, 5000 kPa | 1503.25
362.59 K, 10000 kPa | 1522.52
362.59 K, 15000 kPa | 1539.4
362.6 K, 100 kPa | 1481.19
362.6 K, 1000 kPa | 1485.52
362.6 K, 3000 kPa | 1494.68
362.6 K, 20000 kPa | 1554.46
362.6 K, 25000 kPa | 1568.1
362.6 K, 30000 kPa | 1580.67
362.6 K, 40000 kPa | 1603.06
362.6 K, 50000 kPa | 1622.7
362.6 K, 60000 kPa | 1640.27
362.6 K, 70000 kPa | 1656.03
362.6 K, 80000 kPa | 1670.49
362.6 K, 90000 kPa | 1683.83
362.6 K, 100000 kPa | 1696.22
